Experiments:
PERK kinase = PERK kinase (Homo sapiens (Human), UniProt Q9NZJ5); test: Biochemical assay for PERK (coupled pyruvate kinase/lactate dehydrogenase assay); settings: 1 mM ATP, rate from 2-3 h time frame
Procedure: Activity of PERK kinase was determined spectroscopically using a coupled pyruvate kinase/lactate dehydrogenase assay that continuously monitors the ATP hydrolysis-dependent oxidation of NADH (e.g., Schindler et al. Science (2000) 289: 1938-1942). Assays were conducted in 384-well plates (100 μL final volume) using 10 nM PERK (from Beryllium), 0.25 mg/mL Myelin Basic Protein substrate, 1.5 units pyruvate kinase, 2.1 units lactate dehydrogenase, 1 mM phosphoenol pyruvate, 0.28 mM NADH and 1 mM ATP in assay buffer (100 mM Tris, pH 7.5, 15 mM MgCl2, 0.5 mM DTT, 0.004% (w/v) BSA, and 0.004% Triton X-100). Inhibition of PERK was measured by adding serial diluted test compound (final assay concentration of 1% DMSO). A decrease in absorption at 340 nm was monitored continuously for 6 hours at 30° C. on a multi-mode microplate reader (BioTek). The reaction rate was calculated using the 2-3 h time frame. The reaction rate at each concentration of compound was converted to percent inhibition using controls (i.e. reaction with no test compound and reaction with a known inhibitor) and IC50 values were calculated using software routines in Prism (GraphPad software).

GCN2 kinase = GCN2 kinase (Homo sapiens (Human), UniProt Q9P2K8); test: Biochemical assay for GCN2 (TR-FRET kinase activity assay); settings: 1 mM ATP, 3-hour incubation
Chain of GCN2 kinase (Q9P2K8 whole entry): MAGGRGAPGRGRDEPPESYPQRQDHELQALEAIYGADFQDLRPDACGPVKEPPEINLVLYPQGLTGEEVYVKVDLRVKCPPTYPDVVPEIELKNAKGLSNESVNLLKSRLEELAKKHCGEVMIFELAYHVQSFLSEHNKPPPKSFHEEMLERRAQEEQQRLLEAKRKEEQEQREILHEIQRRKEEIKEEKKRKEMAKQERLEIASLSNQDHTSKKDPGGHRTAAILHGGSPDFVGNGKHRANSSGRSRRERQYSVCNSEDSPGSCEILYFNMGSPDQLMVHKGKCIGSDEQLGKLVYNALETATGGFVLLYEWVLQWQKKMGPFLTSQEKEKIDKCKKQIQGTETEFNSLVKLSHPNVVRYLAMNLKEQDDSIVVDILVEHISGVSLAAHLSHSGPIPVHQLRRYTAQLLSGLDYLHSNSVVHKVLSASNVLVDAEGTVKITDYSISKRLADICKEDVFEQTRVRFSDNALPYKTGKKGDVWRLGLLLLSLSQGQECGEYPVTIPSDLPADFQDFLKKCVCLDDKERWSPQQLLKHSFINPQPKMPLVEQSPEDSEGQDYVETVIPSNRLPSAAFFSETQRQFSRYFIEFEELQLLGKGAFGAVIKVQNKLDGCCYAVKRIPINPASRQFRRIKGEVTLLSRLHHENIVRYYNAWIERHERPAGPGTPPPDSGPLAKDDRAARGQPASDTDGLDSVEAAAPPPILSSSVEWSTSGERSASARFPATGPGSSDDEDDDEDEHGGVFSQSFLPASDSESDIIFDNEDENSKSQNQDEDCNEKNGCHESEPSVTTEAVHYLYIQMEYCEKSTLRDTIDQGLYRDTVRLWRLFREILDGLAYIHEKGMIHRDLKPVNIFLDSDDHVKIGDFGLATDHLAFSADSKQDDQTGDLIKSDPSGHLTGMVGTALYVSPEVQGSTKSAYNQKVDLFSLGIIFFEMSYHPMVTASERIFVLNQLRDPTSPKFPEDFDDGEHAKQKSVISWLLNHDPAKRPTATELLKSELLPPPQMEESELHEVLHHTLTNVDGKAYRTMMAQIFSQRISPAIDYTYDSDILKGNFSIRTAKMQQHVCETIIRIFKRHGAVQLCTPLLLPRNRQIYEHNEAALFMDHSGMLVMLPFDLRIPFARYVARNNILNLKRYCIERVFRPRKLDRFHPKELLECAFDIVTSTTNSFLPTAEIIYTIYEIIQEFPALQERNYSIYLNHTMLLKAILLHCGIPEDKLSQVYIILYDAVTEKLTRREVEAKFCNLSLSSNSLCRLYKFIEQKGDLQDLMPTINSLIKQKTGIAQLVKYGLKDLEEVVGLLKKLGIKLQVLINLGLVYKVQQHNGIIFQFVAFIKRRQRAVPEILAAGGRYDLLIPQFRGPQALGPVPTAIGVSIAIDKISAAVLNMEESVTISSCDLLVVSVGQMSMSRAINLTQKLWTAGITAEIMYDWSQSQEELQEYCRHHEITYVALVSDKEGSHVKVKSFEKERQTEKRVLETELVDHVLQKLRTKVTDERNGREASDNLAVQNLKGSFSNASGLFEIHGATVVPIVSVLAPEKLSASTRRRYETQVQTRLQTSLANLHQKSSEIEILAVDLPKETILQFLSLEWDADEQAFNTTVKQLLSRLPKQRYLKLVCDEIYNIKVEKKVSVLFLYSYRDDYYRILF
Procedure: Activity of GCN2 kinase was determined using a TR-FRET kinase activity assay (e.g. Riddle et al. Analytical Biochemistry (2006) 356(1) 108-116). Assays were conducted in 384-well plates (13 μL assay volume) using 2 nM GCN2 (Carna Biosciences), 130 nM GFP-EIf2α (Invitrogen), 0.2 mg/mL E. coli tRNA (sigma) and 1 mM ATP in kinase buffer (Invitrogen). Inhibition of GCN2 was measured by adding serial diluted test compound (final assay concentration of 0.5% DMSO) followed by a 3-hour incubation. Tb-peIF2α (pSer52) antibody (Invitrogen) (2 nM final assay concentration) in kinase buffer containing ETDA (final assay concentration of 20 mM) was added. After a 60 min incubation at room temperature, TR-FRET was monitored using an excitation wavelength of 340 nm and emission wavelengths of 490 nm and 520 nm. The emission ratio (520/490) at each compound concentration of was converted to percent inhibition using controls (i.e. reaction with no test compound and reaction with a known inhibitor) and IC50 values were calculated by fitting a four-parameter sigmoidal curve to the data using Prism (GraphPad software).

[1] = test system: ATF4 in CCRF-CEM leukemia cells (PERK); test: CCRF-CEM TG ATF4 ELISA, phenotypic assay for cellular inhibition of PERK preactivated by thapsigargin; type: cell-based; settings: Homo sapiens; Thapsigargin (1 μM) stimulated CCRF-CEM cells
Procedure: CCRF-CEM leukemia cells (catalog #CCL-116) were obtained from the American Type Culture Collection (ATTC, Manassas, VA). Briefly, cells were grown in RPMI-1640 medium supplemented with 10% heat-inactivated fetal bovine serum (Invitrogen, Carlsbad, CA) and 1% Penicillin/Streptomycin/L-Glutamine at 37° C., 5% CO2, and 95% humidity. Cells were expanded until reaching one million cells per mL at which time they were subcultured or harvested for assay use. One million five hundred thousand cells per well in 1 mL complete growth medium were dispensed into 12-well plates and incubated overnight. A serial dilution of test compound was added and cells were incubated at 37° C., 5% CO2, and 95% for three hours, then 1 μM thapsigargin was added and cells were incubated for an additional hour at 37° C., 5% CO2, and 95%. Cells were lysed then ATF4 levels were measured using an ELISA assay (Proteintech, Rosemont, IL). Absorbance was measured at 450 nm and 544 nM using a Synergy2 or equivalent reader (Biotek, Winooski VT). Data was analyzed using PRISM software (Graphpad, San Diego, CA) to calculate IC50 values.

CCRF-CEM leukemia cells = test: CCRF-CEM ASNase cell proliferation assay, phenotypic assay for cellular inhibition of GCN2; type: cell-based; settings: Homo sapiens; ASNase treated CCRF-CEM cells, 1 mU/mL ASNase, 72 h
Procedure: CCRF-CEM leukemia cells (catalog #CCL-116) were obtained from the American Type Culture Collect (ATTC, Manassas, VA). Cells were grown in RPMI-1640 medium supplemented with 10% heat-inactivated fetal bovine serum (Invitrogen, Carlsbad, CA) and 1% Penicillin/Streptomycin/L-Glutamine at 37° C., 5% CO2, and 95% humidity. Cells were expanded until reaching one million cells per mL at which time they are subcultured or harvested for assay use. Ten thousand cells per well in 200 μL RPMI-1640 supplemented with 10% heat-inactivated fetal bovine serum and 1% Penicillin/Streptomycin were dispensed into a 96-well black clear bottom plate. A serial dilution of test compound and 1 mU/mL ASNase was added in triplicate and plates were incubated for 72 h at 37° C., 5% CO2, and 95% humidity. At the end of the incubation, 40 μL of a […] solution of resazurin (Sigma, St. Louis, MO) in PBS was added to each well of the plate and plates were incubated for an additional 6 h at 37° C., 5% CO2, and 95% humidity. Plates were read on a Synergy2 or equivalent reader (Biotek, Winooski VT) using an excitation of 540 nm and an emission of 600 nm. Data was analyzed using GraphPad Prism software (GraphPad, San Diego, CA) to calculate IC50 values.

Chain of PERK kinase (Q9NZJ5 other isoform, or with tags, fused parts or gaps): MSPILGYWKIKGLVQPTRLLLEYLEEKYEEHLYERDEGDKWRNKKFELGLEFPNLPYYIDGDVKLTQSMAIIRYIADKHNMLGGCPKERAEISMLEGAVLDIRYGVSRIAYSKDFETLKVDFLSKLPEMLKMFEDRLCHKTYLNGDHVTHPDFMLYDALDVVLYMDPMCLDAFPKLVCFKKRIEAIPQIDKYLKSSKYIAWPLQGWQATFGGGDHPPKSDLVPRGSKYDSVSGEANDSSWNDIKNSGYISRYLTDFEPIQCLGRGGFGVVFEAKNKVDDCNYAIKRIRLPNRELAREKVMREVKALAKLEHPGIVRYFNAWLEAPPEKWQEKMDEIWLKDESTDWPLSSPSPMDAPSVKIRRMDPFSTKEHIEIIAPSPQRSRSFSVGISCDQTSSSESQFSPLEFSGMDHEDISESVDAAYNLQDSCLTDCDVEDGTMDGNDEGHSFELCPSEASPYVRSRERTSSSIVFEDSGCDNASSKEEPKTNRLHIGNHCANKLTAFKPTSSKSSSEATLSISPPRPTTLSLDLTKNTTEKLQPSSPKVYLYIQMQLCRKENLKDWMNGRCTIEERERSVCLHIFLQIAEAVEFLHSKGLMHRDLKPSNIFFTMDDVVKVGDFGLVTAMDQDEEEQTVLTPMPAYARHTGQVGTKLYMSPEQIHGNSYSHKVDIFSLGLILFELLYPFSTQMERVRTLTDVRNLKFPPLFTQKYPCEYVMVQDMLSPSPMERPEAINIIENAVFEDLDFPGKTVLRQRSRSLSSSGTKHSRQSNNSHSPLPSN

| Structure (SMILES) | IC50 (PERK kinase) [nM] | IC50 (GCN2 kinase) [nM] | IC50 [1] [nM] | IC50 (CCRF-CEM leukemia cells) [nM] |
| --- | --- | --- | --- | --- |
| CNc1ncc2cc(-c3cccc(NS(=O)(=O)c4cc(Cl)cnc4OC)c3F)c(OCCOC)nc2n1 [Example 147] | 100 to 500 | ≤ 100 | – | – |
| CNc1ncc2cc(-c3cccc(NS(=O)(=O)c4cc(C5CC5)cnc4OC)c3F)c(NC)nc2n1 [Example 153] | 100 to 500 | ≤ 100 | – | – |
| CNc1ncc2cc(-c3cccc(NS(=O)(=O)c4cc(Cl)cnc4OC4CC4)c3F)c(NC)nc2n1 [Example 154] | 100 to 500 | 100 to 500 | – | – |
| CNc1nc2nc(N)ncc2cc1-c1ccnc(NS(=O)(=O)c2cc(Cl)cnc2OC)c1F [Example 155] | 100 to 500 | 100 to 500 | – | – |
| CNc1ncc2cc(-c3cccc(NS(=O)(=O)c4cccnc4OC)c3F)c(NC)nc2n1 [Example 156] | 500 to 1000 | 100 to 500 | – | – |
| CNc1ncc2cc(-c3cccc(NS(=O)(=O)c4cc(Cl)cnc4OC)c3F)c(OC)cc2n1 [Example 159] | ≤ 100 | ≤ 100 | 500 to 1000 | ≤ 100 |
| CNc1ncc2cc(-c3cccc(NS(=O)(=O)c4cc(Cl)c[nH]c4=O)c3F)c(NC)nc2n1 [Example 160] | 1000 to 10000 | 500 to 1000 | – | – |
| CNc1ncc2cc(-c3cccc(NS(=O)(=O)c4ccc(Cl)cc4OC)c3F)c(NC)nc2n1 [Example 161] | 100 to 500 | 100 to 500 | – | – |
| CNc1cnc(OC)c(S(=O)(=O)Nc2cccc(-c3cc4cnc(NC)cc4nc3C)c2F)c1 [Example 162] | 100 to 500 | ≤ 100 | – | ≤ 100 |
| CNc1ncc2cc(-c3cc(NS(=O)(=O)c4cc(Cl)cnc4OC)ccn3)ccc2n1 [Example 163] | 1000 to 10000 | 1000 to 10000 | – | – |
| CNc1nc2nc(NC(C)=O)ncc2cc1-c1cc(F)cc(NS(=O)(=O)c2cc(Cl)cnc2OC)c1 [Example 164] | 100 to 500 | ≤ 100 | 1000 to 10000 | 100 to 500 |
| COc1nc2nc(N)ncc2cc1-c1cccc(NS(=O)(=O)c2cc(Cl)cnc2OC)c1F [Example 165] | ≤ 100 | ≤ 100 | 1000 to 10000 | ≤ 100 |
| CNc1ncc2cc(-c3cccc(NS(=O)(=O)c4ncccc4OC)c3F)c(NC)nc2n1 [Example 166] | 1000 to 10000 | 1000 to 10000 | – | – |
| COc1cc2nc(N)ncc2cc1-c1cccc(NS(=O)(=O)c2cc(Cl)cc(CO)c2Cl)c1F [Example 167] | ≤ 100 | ≤ 100 | ≤ 100 | ≤ 100 |
| CNc1ncc2cc(-c3cccc(NS(=O)(=O)c4cc(OC)ccc4Cl)c3F)c(NC)nc2n1 [Example 168] | ≤ 100 | ≤ 100 | 1000 to 10000 | 100 to 500 |
| CNc1ncc2cc(-c3cccc(NS(=O)(=O)c4cc(Br)cnc4OC)c3F)c(NC)nc2n1 [Example 169] | 100 to 500 | ≤ 100 | – | – |
| CNC(=O)c1cc(Cl)cc(S(=O)(=O)Nc2cccc(-c3cc4cnc(NC)nc4nc3NC)c2F)c1Cl [Example 170] | 1000 to 10000 | 1000 to 10000 | – | – |
| CNc1cc2nc(N)c(-c3cccc(NS(=O)(=O)c4cc(Cl)cc(CO)c4Cl)c3F)cc2cn1 [Example 171] | – | – | ≤ 100 | ≤ 100 |
| CNc1ncc2cc(-c3cccc(NS(=O)(=O)c4cc(Cl)cc(CO)c4F)c3F)c(NC)nc2n1 [Example 176] | ≤ 100 | ≤ 100 | 1000 to 10000 | ≤ 100 |
